Experimental findings from patent US20180140578A1, “METHODS AND COMPOSITIONS FOR THE DIAGNOSIS AND SELECTIVE TREATMENT OF CANCER” (Board of Regents of the University of Texas System, priority 2016, published 2018) are described below.

The target in experiment [1] is T1, RBM39-3xFLAG G268V with CUL4-DCAF15 complex (Homo sapiens, UniProt Q14498+Q66K64, G268V).
T1 construct: lysate derived from parental cells, RBM39-3xFLAG cells, or RBM39 G268V-3xFLAG cells; endogenous in cells; host or cells: HCT-116 RBM39 G268V-3xFLAG cells (treated cells in A91; lysates in A95)
The experiment can be described thus: In vitro formation of complex in lysates, G268V. The note with it: in the presence of 10 μM of indisulam. Type of experiment: binding. The method, then:
First, we reconstituted formation of the RBM39-CUL4-DCAF15 complex in vitro (FIG. 4, panel A).
Anti-Flag M2 antibody (Sigma-Aldrich) was coupled to Dynabeads M-270 epoxy beads (Life Technologies) at the ratio of 10 μg of antibody/mg beads. […] Frozen cells were then pulverized in the a cryomill (Retsch) with one 25 mm steel ball and five cycles of three min at 25 Hz with intermittent cooling in liquid nitrogen. […] The lysates were centrifuged at 8000 g for 5 min at 4° C. 12 mg of conjugated Anti-Flag magnetic beads were mixed with clarified lysates for 5 min at 4° C. on a rotating platform, followed by three washes with IP buffer. Bound proteins were eluted with 1 mg/ml 3xFLAG peptide, followed by SDS-PAGE on a 10% Bis Tris gel. After brief electrophoresis, bands containing all the proteins were cut with clean blades. For western blotting of co-immunoprecipitated proteins, anti-DDA1 (ProteinTech, 14995-1-AP, 1:1000), anti-DDB1 (Abcam, ab109027, 1;10000), anti-CUL4A (Cell Signaling, 2699, 1:1000), anti-CUL4B (ProteinTech, 12916-1-AP, 1:1000) were used.

The target of another experiment is T2, RBM39-AcGFP (Homo sapiens, UniProt Q14498+Q66K64).
T2 construct: Homology directed repair facilitates tagging of endogenous RBM39 by AID, 3xFLAG, AcGFP, or Nanoluciferase; endogenous in cells; host or cells: H1155 RBM39-AcGFP knock-in cells
Briefly: CRISPR inactivation of DDB1, DDA1, DCAF15; RBM39-AcGFP by flow cytometry. Type of experiment: cell-based. Particulars: H1155 RBM39-AcGFP cells. As for the experimental part:
Two independent guide RNAs targeting DDB1, DDA1, DCAF15 were cloned into PX459. 0.2 million H1155 RBM39-AcGFP cells were transfected with PX459 sgRNA constructs and selected with 2 μg/ml puromycin to enrich for transfected cells. […] Cells were then trypsinized and the expression of RBM39-AGFP was quantified with flow cytometry. H1155 cells transfected with DCAF15 guide RNA were sparsely plated on 10 cm^2 plates and clones were isolated. Genomic DNA sequence flanking the cut site were amplified and sequenced to identify DCAF15−/− clones.

Experiment [2] has as its system HCT-116 cells expressing wild type or mutant RBM39. Briefly: Transient transfection of RBM39 cDNA, crystal violet staining. The class given is cell-based, human. Particulars: 2 μM indisulam. The method, then:
RBM39 was PCR amplified from U2OS cDNA and cloned into pLVX IRES zsGreen1 (Clontech). Mutagenesis of RBM39 was performed using Q5 site-directed mutagenesis kit (NEB) and primers were designed using the NEBaseChanger web server (nebasechanger.neb.com/). For transient transfection, 0.1 million HCT-116 cells were seeded per well in a 12-well plate on day 1. On day 2, cells were transfected with 1 μg of plasmid (pLVX IRES zsGreen containing wild type or mutant RBM39). […] For crystal violet staining, cells on plates were stained with 0.05% crystal violet, 1% formaldehyde in 1×PBS for 20 min at room temperature, followed by several rinses with deionized water to remove free stain.

Experiment [3] concerns the target T3, DCAF15-3xFLAG and RBM39Δ150 (Homo sapiens, UniProt Q14498+Q66K64).
T3 construct: Full-length cDNAs encoding CUL4A, CUL4B, DCAF15, and DDB1 were cloned into pLVX IRES Puro; made in house; host or cells: RBM39Δ150: Sf9 (baculovirus); DCAF15-3xFLAG: anti-FLAG beads from HCT-116 or 293T cells stably expressing it
Briefly: RBM39Δ150 pulldown assay. The class given is binding. The method, then: RBM39 lacking the first 150 amino acids after the start codon (RBM39Δ150) was cloned into the pFastBac1 (Life Technologies) vector. Site-directed Mutagenesis of RBM39 was performed using Q5 site-directed mutagenesis kit (NEB). DCAF15-GST (C-terminal GST tag) and DDB1 were also cloned into pFastBac1. The production of baculovirus was carried out following vendor's instructions. Protein was expressed in SF9 cells by infection with each protein specific baculovirus, and cells were harvested 48 hr later and frozen in liquid nitrogen. For purification of RBM39Δ150, frozen cells were pulverized by cryomill and resuspended in lysis buffer (40 mM Tris, pH 7.5, 225 mM NaCl, 1× […] Protease inhibitor). The lysate was passed through a 22 gauge needle 2 times followed by ultracentrifugation at 25000 rpm for 30 min. Clarified lysate was incubated with Ni-NTA agarose (Qiagen) for 30 min with rotation at 4° C. Resin and bound protein were washed with wash buffer 1 (40 mM Tris, pH 7.5, 225 mM NaCl) followed by wash buffer 2 (40 mM Tris, pH 7.5, 20 mM imidazole, 225 mM NaCl). Proteins were eluted with elution buffer (40 mM Tris, pH 7.5, 300 mM imidazole, 225 mM NaCl) and concentrated to 0.5 ml. Concentrated proteins were then fractionated on Superdex 200 Increase 10/300 GL (GE Healthcare). RBM39Δ150 and mutants eluted at 14.8 ml after injection and were stored at −80° C. in 40 mM Tris, pH 7.5, 225 mM NaCl. For purification of DCAF15-GST/DDB1, Sf9 cells co-infected with DCAF15-GST and DDB1 baculoviruses were lysed in PBS supplemented with 0.1% NP40, 1× […] Protease inhibitors, and 0.5 mM PMSF. The lysate was passed through a 22 gauge needle 2 times followed by centrifugation at 7000 rpm for 15 min. Clarified lysate was incubated with Glutathione Sepharose 4B resin (GE healthcare) for 30 min with rotation at 4° C. Resin was washed with PBS for three times before elution with 50 mM Tris, 10 mM glutathione, pH 8.
HCT-116 cells stably expressing DDB1-3xFLAG, CUL4A-3xFLAG, CUL4B-3xFLAG, or to DCAF15-3xFLAG were lysed in 1×PBS, 0.1% NP40, and 1× […] protease inhibitor (1 ml per […] plate). […]

T3 sequence (Q66K64 whole entry, stated change not applied): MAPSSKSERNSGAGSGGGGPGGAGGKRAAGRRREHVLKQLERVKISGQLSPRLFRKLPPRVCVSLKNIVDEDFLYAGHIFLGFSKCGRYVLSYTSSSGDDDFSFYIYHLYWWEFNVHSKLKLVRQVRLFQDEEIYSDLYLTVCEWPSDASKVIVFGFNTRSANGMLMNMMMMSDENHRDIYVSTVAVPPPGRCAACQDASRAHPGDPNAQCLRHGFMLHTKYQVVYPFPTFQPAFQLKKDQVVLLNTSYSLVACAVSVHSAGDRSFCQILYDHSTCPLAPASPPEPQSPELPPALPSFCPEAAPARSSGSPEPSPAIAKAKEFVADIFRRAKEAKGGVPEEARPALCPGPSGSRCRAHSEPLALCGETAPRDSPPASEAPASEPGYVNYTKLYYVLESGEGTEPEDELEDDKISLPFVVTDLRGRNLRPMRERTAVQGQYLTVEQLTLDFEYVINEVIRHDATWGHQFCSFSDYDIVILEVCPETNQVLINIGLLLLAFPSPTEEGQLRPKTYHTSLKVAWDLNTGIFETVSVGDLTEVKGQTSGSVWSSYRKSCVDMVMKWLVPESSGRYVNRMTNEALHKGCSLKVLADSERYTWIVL
T3 sequence (Q14498 151-530 limits assumed, stated change not applied): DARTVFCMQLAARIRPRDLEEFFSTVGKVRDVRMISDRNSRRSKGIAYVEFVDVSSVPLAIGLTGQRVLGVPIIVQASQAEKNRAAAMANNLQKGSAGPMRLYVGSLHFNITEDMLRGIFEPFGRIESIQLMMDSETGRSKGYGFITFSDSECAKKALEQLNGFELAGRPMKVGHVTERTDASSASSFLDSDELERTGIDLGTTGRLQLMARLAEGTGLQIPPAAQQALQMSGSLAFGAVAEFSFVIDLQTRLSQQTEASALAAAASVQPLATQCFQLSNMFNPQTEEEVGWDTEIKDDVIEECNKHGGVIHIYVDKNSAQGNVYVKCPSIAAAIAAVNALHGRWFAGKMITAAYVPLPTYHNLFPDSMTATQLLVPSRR
T3 sequence (Q16531 whole entry partner): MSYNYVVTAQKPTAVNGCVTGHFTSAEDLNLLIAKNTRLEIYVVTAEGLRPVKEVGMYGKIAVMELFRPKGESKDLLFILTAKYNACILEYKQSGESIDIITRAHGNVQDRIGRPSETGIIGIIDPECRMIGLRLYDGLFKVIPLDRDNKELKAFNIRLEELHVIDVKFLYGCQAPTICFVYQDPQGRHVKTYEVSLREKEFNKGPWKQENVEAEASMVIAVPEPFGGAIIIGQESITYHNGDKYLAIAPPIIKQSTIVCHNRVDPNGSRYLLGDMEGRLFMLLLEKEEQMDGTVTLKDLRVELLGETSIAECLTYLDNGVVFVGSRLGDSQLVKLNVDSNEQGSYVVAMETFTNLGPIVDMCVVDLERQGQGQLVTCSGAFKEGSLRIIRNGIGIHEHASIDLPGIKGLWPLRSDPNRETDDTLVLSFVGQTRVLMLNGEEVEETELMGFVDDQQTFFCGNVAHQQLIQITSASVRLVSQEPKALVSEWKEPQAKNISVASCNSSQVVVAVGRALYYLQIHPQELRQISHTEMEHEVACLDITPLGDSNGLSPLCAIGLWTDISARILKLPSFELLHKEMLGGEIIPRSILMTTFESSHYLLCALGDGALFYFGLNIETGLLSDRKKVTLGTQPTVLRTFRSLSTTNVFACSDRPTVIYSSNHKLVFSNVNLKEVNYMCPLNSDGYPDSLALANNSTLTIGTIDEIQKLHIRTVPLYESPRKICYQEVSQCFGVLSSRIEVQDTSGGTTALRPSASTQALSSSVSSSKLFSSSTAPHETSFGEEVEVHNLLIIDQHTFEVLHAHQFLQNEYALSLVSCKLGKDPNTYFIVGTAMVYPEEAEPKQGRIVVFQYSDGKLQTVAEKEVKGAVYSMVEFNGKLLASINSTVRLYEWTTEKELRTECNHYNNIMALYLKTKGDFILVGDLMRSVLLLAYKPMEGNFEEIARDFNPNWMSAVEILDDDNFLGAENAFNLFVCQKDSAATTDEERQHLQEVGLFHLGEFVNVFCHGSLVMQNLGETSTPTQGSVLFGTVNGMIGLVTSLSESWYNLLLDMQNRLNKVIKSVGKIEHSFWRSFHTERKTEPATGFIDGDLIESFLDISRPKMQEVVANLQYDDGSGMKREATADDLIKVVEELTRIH

In the case of `NS(=O)(=O)c1ccc(S(=O)(=O)Nc2cccc3c(Cl)c[nH]c23)cc1` [Indisulam, indisulam], the “co-purification of RBM39-3xFLAG G268V with CUL4-DCAF15 complex” value in experiment [1] is given as “did not co-purify”. Further, the “RBM39-AcGFP after indisulam treatment” value at RBM39-AcGFP is given as “degraded”. For the same compound, the “cell survival (crystal violet)” value in experiment [2] (mock-transfected or wild type RBM39) is “not indisulam resistant”; in experiment [2] (transient expression of eight different RBM39 mutants), “conferred resistance”. Also, the “co-purification of DCAF15 with RBM39Δ150” value in experiment [3] (in the presence of indisulam, not DDB1, CUL4A or CUL4B) is “co-purified”. Further, the “indisulam concentration at which RBM39Δ150-DCAF15 complex was apparent” value in experiment [3] (wild type RBM39Δ150) was determined as 0.10 µM.
